Here are results for 15 compounds from patent publication US5424185A, “Human high-affinity neurotransmitter uptake system” (Baylor College of Medicine, priority 1990, dated 1995).

Data set [1] has as its system neuronal and glial GABA uptake systems in the CNS. Particulars: literature, cited from earlier work; for IC50: neuronal and glial uptake systems, read-out: IC50, high-affinity GABA uptake in the CNS.
Data set [2] has as its system GABA transporter (L-GAB1 cells). The experiment in a line: [3H]GABA uptake by L-GAB1 cells. The note with it: for inhibition of total [3H]GABA uptake by L-GAB1 cells: effect saturating by 100 μM; for effect of GABA uptake inhibitors on [3H]GABA uptake by L-GAB1 cells: inhibitor 1 to 100 μM. Format: cell-based, human. Here is the method: Using concentrations of [^3 H] GABA ranging from 2 to 500 μM, the kinetic profile of GABA uptake was determined for both L-GAB1 and L-M cells. The initial velocity of GABA uptake was measured and plotted against the corresponding [^3 H] GABA concentration for both cell lines. […] The velocity profile for L-GAB1 cells was subtracted by that of L-M cells, and the resulting data used for a double-reciprocal plot of velocity-^1 against GABA concentration-^1. The velocity profile for L-M cells was also transformed into a double-reciprocal plot.
Several known inhibitors of high-affinity GABA uptake were used to examine their efficacies in inhibiting [^3 H] GABA uptake by L-GAB1 cells. […] Each of these agents was used at several concentrations ranging from 1 to 100 μM in assays of [^3 H] GABA uptake by L-GAB1 cells. […] GABA uptake by L-GAB1 cells.
L-GAB1 cells were also analyzed in terms of their ligand-specificity in the high-affinity GABA uptake mechanism.

In data set [3] the test system is L-M cells. Kind of data set: [3H]-5-HT uptake by untransfected L-M cells. In kind it is cell-based, mouse. The procedure: L-S1 and L-M cells were preplated into 96-well culture plates. For uptake assays, the growth medium was removed from each well and the cells rinsed several times with oxygenated Ringer's buffer supplemented with 0.5 mM pargyline and 0.5 mM ascorbate. […] The radioligand was added to a final concentration of 0.1 μM and incubated with the cells at 37° C. for 40 minutes. The incubation mixture was then removed and each well was washed three times at room temperature with Ringer's buffer. The cells remaining in the wells were lysed with 1% sodium dodecyl sulphate (SDS) and transferred to counting vials containing 5 ml of ACS scintillant (Amersham), for liquid scintillation spectrometry. […]
(§1) Non-specific activity was determined from parallel assays carried out at 0° C. Initial velocities were calculated in terms of pmol/mg protein/min by subtracting velocity values obtained at 0° C. from those obtained at 37° C.
Cells were assayed in the presence of each inhibitor for 40 minutes at 37° C., washed with Ringer's buffer and prepared for counting as previously described. […] The IC50 value for each inhibitor was determined by plotting the percent activity against the logarithm of inhibitor concentration. Measured levels of uptake in the presence of inhibitors were expressed as the percentage of maximal uptake (100 %) in the absence of inhibitor.

Data set [4] relates to Rat Synaptosomes. Particulars: literature values; read-out: Representative IC50, Rat Synaptosomes; cited from earlier work.
Data set [5] concerns the target T1, human 5HT transporter (L-S2 cells) (Homo sapiens, UniProt P31645).
T1 construct: expressed in transfected cells; host or cells: mouse L-M fibroblasts (ATCC CCL 1.2) transfected with total human genomic DNA and pSV2neo; clone L-S2
The experiment in a line: [3H]-5-HT uptake by L-S2 cells. Format: cell-based. Here is the method: L-S1 and L-M cells were preplated into 96-well culture plates. For uptake assays, the growth medium was removed from each well and the cells rinsed several times with oxygenated Ringer's buffer supplemented with 0.5 mM pargyline and 0.5 mM ascorbate. […] The radioligand was added to a final concentration of 0.1 μM and incubated with the cells at 37° C. for 40 minutes. The incubation mixture was then removed and each well was washed three times at room temperature with Ringer's buffer. The cells remaining in the wells were lysed with 1% sodium dodecyl sulphate (SDS) and transferred to counting vials containing 5 ml of ACS scintillant (Amersham), for liquid scintillation spectrometry. For each assay, 6-8 parallel sets of wells were assayed simultaneously.
as §1
(§2) Cells were assayed in the presence of each inhibitor for 40 minutes at 37° C., washed with Ringer's buffer and prepared for counting as previously described. Five confluent wells were assayed at each inhibitor concentration. The IC50 value for each inhibitor was determined by plotting the percent activity against the logarithm of inhibitor concentration. Measured levels of uptake in the presence of inhibitors were expressed as the percentage of maximal uptake (100 %) in the absence of inhibitor.

Data set [6] deals with human L-glutamate transporter (L-Glul cells). The experiment in a line: L-[3H]glutamate uptake by L-Glul cells. In kind it is cell-based. Particulars: unlabelled neurotransmitters, EAA receptor ligands, co-transporter inhibitors. Here is the method: Both L-Glul and L-M cells were assessed for their kinetic properties of [^3 H] Glu uptake, and the results were analyzed by fitting to Michaelis-Menten kinetics. This was done by incubating cells with differing concentrations of [^3 H] Glu (ranging from 0.05 to 2 μM) for 10 minutes, at both 37° C. and 0° C. The amount of [^3 H] Glu retained by the cells following incubation was then quantitated and converted (using the manufacturer's specific activity for [^3 H] Glu to the corresponding picomole-equivalent of the radioligand, for each concentration of radioligand at each temperature. Then, the pmol value is normalized by the length of incubation and the amount of protein corresponding to the number of cells assayed. The resulting value, expressed in units of pmol/min/mg protein, is the initial velocity value for each concentration of [^3 H] Glu at each temperature. The initial velocity measured at 37° C. represents total initial velocity; the initial velocity measured at 0° C. represents nonspecific initial velocity. The difference between these two velocity values is then the specific initial velocity, denoted by "V", for each concentration of [^3 H] Glu.
Various drugs specific for excitatory amino acid (EAA) receptor subtypes were assessed for their effects on [^3 H] Glu uptake by L-Glul cells.
Glu uptake by L-Glul cells.

The target of data set [7] is T2, human 5HT transporter (L-S1 cells) (Homo sapiens, UniProt P31645).
T2 construct: expressed in transfected cells; host or cells: mouse L-M fibroblasts (ATCC CCL 1.2) transfected with total human genomic DNA and pSV2neo; clone L-S1
The experiment in a line: [3H]-5-HT uptake by L-S1 cells. Format: cell-based. Here is the method:
The cells were incubated at 37° C. for an additional 40 min.
L-S1 and L-M cells were preplated into 96-well culture plates. For uptake assays, the growth medium was removed from each well and the cells rinsed several times with oxygenated Ringer's buffer supplemented with 0.5 mM pargyline and 0.5 mM ascorbate. […] […] […] The cells remaining in the wells were lysed with 1% sodium dodecyl sulphate (SDS) and transferred to counting vials containing 5 ml of ACS scintillant (Amersham), for liquid scintillation spectrometry. For each assay, 6-8 parallel sets of wells were assayed simultaneously.
as §1, §2

Data set [8] relates to Cultured Astrocytes (rat). The note with it: read-out: Representative IC50, Cultured Astrocytes (rat); literature values; cited from earlier work.
For data set [9], the system named is L-M cells. The note with it: 2 to 500 μM [3H]GABA, low-affinity system.
Data set [10] relates to Synaptosomes. The note with it: literature values; read-out: Representative IC50, Synaptosomes; cited from earlier work.
The subject of data set [11] is Purified Synaptosomes. The note with it: literature value, reference printed beside it; read-out: Representative IC50, Purified Synaptosomes; cited from earlier work.
The subject of data set [12] is Rabbit Platelets. Particulars: read-out: Representative IC50, Rabbit Platelets; literature value; cited from earlier work.
Data set [13] relates to Human Platelets. The note with it: literature values; read-out: Representative IC50, Human Platelets; cited from earlier work.
Data set [14] deals with T3, NCCc1c[nH]c2ccc(O)cc12.
T3 construct: expressed in transfected cells; host or cells: mouse L-M fibroblasts (ATCC CCL 1.2) transfected with total human genomic DNA and pSV2neo; clone L-S1
Kind of data set: [3H]-5-HT uptake by L-S1 cells. Format: cell-based, human. The note with it: other: 10 min, 37° C. minus 0° C., Lineweaver-Burk.

Data set [15] deals with T4, NCCc1c[nH]c2ccc(O)cc12.
T4 construct: expressed in transfected cells; host or cells: mouse L-M fibroblasts (ATCC CCL 1.2) transfected with total human genomic DNA and pSV2neo; clone L-S2
Kind of data set: [3H]-5-HT uptake by L-S2 cells. In kind it is cell-based, human. Particulars: other: 10 min, 37° C. minus 0° C., Lineweaver-Burk.

The mark [16] stands for this setting: ligand 10 μM, 10 min preincubation, 0.1 μM [3H]-5HT, 40 min, 37° C. (FIG. 1).

Several values for one entry are separate records, joined by “and”; a condition that tells them apart may be missing. Equal entries are not always repeated. Where two headings read alike, the source gives them in different places.

T2 sequence (P31645 whole entry): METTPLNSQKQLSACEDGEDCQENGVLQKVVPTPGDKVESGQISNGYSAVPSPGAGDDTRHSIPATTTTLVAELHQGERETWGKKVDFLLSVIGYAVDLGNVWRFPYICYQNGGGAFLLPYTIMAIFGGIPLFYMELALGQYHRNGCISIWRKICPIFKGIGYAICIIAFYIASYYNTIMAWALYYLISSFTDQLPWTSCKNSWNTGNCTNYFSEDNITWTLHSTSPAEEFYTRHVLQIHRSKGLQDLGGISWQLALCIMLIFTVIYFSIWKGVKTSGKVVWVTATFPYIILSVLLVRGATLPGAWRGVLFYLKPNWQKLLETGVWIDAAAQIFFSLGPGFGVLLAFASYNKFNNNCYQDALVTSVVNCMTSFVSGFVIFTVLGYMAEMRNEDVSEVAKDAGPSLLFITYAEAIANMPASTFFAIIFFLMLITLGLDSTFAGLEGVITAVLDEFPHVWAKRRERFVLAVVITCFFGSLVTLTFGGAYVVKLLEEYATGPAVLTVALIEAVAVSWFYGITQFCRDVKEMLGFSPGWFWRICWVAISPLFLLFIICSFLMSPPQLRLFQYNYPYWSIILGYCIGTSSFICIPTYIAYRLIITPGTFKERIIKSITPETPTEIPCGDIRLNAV
T1 sequence (P31645 whole entry): as above

Consider `O=C(O)C1CCCNC1` (racemic) [NA, (±)nipecotic acid], for which the IC50 in data set [1] is 10000 to 200000 nM. In [2], the “inhibition of total [3H]GABA uptake by L-GAB1 cells” value is “less than 20%” and the “effect of GABA uptake inhibitors on [3H]GABA uptake by L-GAB1 cells” value (from here on “effect of GABA uptake inhibitors”) is on record as “some effect”.

Take `O=C(O)[C@@H]1CNCC[C@@H]1O` (relative stereo) [4-cis-OHNA, 4-cis-hydroxynipecotic acid]: the IC50 in data set [1] was 10000 to 200000 nM. Moreover, the “effect of GABA uptake inhibitors” value in data set [2] is on record as “without measurable effect”.

`NCCc1c[nH]c2ccc(O)cc12` [5-HT, serotonin]: the “effect on 5-HT uptake activity of untransfected L-M cells” value in [3] was “unaffected”. The IC50 in [4] is 150 nM. In data set [5] (kinetic assay, Lineweaver-Burk), the “effect of excess unlabelled 5-HT on [3H]5-HT uptake, L-S2” value is given as “significantly inhibited”. In addition, the “effect of competing ligand on [3H]-5HT uptake, L-S2” value in [5] (setting [16]) is reported as “significantly inhibited”. In [6], the “effect on [3H]Glu uptake by L-Glul cells” value is listed as “only unlabelled L-glutamate seems to mediate some inhibition”. For the same compound, the “effect of excess unlabelled 5-HT on [3H]5-HT uptake, L-S1” value in data set [7] (kinetic assay, Lineweaver-Burk) was “significantly inhibited”. In [7] (setting [16]), the “effect of competing ligand on [3H]-5HT uptake, L-S1” value is listed as “significantly inhibited”.

`COc1ccc2[nH]cc(CCN)c2c1` [5-methoxytryptamine]: the figures for the IC50 in data set [4], in data set [5] and in data set [7] were 25000 nM, 1500 nM and 3500 nM, respectively.

For `CN(C)CCC=C1c2ccccc2CCc2ccccc21` [Amitriptyline, amitriptyline], the half-inhibitory concentration (IC50) in data set [8] was 140 nM.

On to `NCCC(N)C(=O)O` (stereo not drawn) [DABA, 2,4-diaminobutyric acid], for which, in [1], the 50% inhibitory concentration (IC50) is 10000 to 200000 nM. Besides, in data set [2], the “inhibition of total [3H]GABA uptake by L-GAB1 cells” value is reported as “less than 20%” and the “effect of GABA uptake inhibitors” value is given as “some effect”.

Consider `CNCCCN1c2ccccc2CCc2ccccc21` [Desipramine, desipramine], for which the IC50 in data set [8] is 620 nM.

Consider `NCCCC(=O)O` [GABA, γ-aminobutyric acid], for which the “transport Vmax of GABA, L-M cells” value in [9] was 2.1 pmol/min/mg protein. Moreover, the Michaelis-Menten constant (Km) is 697 µM in data set [9] (read-out: transport Km of GABA, L-M cells); < 25 µM and 50 to 100 µM in [1] (read-out: Km of high-affinity GABA transport systems in the CNS); 110 µM in data set [2] (2 to 500 μM [3H]GABA, L-M profile subtracted, read-out: transport Km of GABA, additional component in L-GAB1 cells); 697 µM in data set [2] (2 to 500 μM [3H]GABA, low-affinity system, read-out: transport Km of GABA, system common to L-M and L-GAB1, L-GAB1 cells). Besides, in data set [2] (2 to 500 μM [3H]GABA, L-M profile subtracted), the “transport Vmax of GABA, additional component in L-GAB1 cells” value stood at 2.4 pmol/min/mg protein. The “transport Vmax of GABA, system common to L-M and L-GAB1, L-GAB1 cells” value in data set [2] (2 to 500 μM [3H]GABA, low-affinity system) stood at 2.1 pmol/min/mg protein.

With `O=C(O)C1=CCCNC1` [Guvacine], in data set [1], the IC50 was 10000 to 200000 nM. Moreover, the “effect of GABA uptake inhibitors” value in data set [2] is “without measurable effect”.

Regarding `CN(C)CCCN1c2ccccc2CCc2ccccc21` [Imipramine, imipramine], the figures for the IC50 in data set [10], in data set [11] and in data set [8] were 100 nM, 210 nM and 140 nM, respectively. For the same compound, the “effect on 5-HT uptake activity of untransfected L-M cells” value in data set [3] is listed as “unaffected”. Besides, the “effect of competing ligand on [3H]-5HT uptake, L-S2” value in data set [5] is given as “significantly inhibited”. Further, the “mechanism of inhibition of 5-HT uptake, L-S2” value in [5] is reported as “competitive inhibition”. The “effect of competing ligand on [3H]-5HT uptake, L-S1” value in data set [7] was “significantly inhibited”.

Regarding `CNCCC=C1c2ccccc2CCc2ccccc21` [Nortriptyline, nortriptyline], the half-inhibitory concentration (IC50) in [12] is 900 nM.

As to `NCCc1c[nH]c2ccccc12` [Tryptamine, tryptamine], the IC50 in data set [4] is 2800 nM; in data set [5], 900 nM; in data set [13] it was 2700 nM; in data set [7], 130 nM.

With `c1ccc2c3c([nH]c2c1)CNCC3` [Tryptoline], the half-maximal inhibitory concentration (IC50) was 2500 nM in data set [4], 8000 nM in [5], 3800 nM in data set [13] and 4000 nM in data set [7]. For the same compound, the “inhibition of [3H]-5-HT uptake in words, L-S2” value in data set [5] is reported as “relatively ineffective”. Further, the “inhibition of [3H]-5-HT uptake in words, L-S1” value in data set [7] is “relatively ineffective”.

Take “human 5HT transporter (L-S1 cells) (Homo sapiens)”: in data set [14], the Km was determined as 0.390 ± 0.096 µM and the Vmax is 2.14 ± 0.55 pmol/mg/min.

“human 5HT transporter (L-S2 cells) (Homo sapiens)”: in data set [15], the Michaelis-Menten constant (Km) was 0.234 ± 0.027 µM and the maximum rate (Vmax) came to 1.33 ± 0.13 pmol/mg/min.
